According to US10770169B2, “Method of providing a treatment to a subject based on a dynamic pathway map” (THE REGENTS OF THE UNIVERSITY OF CALIFORNIA, priority 2010, dated 2020):
Like-named read-outs stand apart in the source and are kept apart here.

System: panel of 55 breast cancer cell lines
Test: Cell growth inhibition assay (Cell Titer Glo, 72 h, 9 doses; GI50, TGI, LC50)
Type: cell-based, human
Conditions: Homo sapiens, read-out: GI50 (converted)
[1] = 600MPE cell line, censored GI50 values
[2] = AU565, AU565 cell line, censored GI50 values
[3] = BT-474, BT474 cell line, censored GI50 values
[4] = BT-483, BT483 cell line, censored GI50 values
[5] = HCC38, HCC38 cell line, censored GI50 values
[6] = HCC70, HCC70 cell line, censored GI50 values
[7] = HCC202, HCC202 cell line, censored GI50 values
[8] = HCC1143, HCC1143 cell line, censored GI50 values
[9] = HCC1187, HCC1187 cell line, censored GI50 values
[10] = HCC1395, HCC1395 cell line, censored GI50 values
[11] = HCC1419, HCC1419 cell line, censored GI50 values
[12] = HCC1428, HCC1428 cell line, censored GI50 values
[13] = HCC1500, HCC1500 cell line, censored GI50 values
[14] = HCC1806, HCC1806 cell line, censored GI50 values
[15] = HCC1954, HCC1954 cell line, censored GI50 values
[16] = HCC2185 cell line, censored GI50 values
[17] = HCC3153 cell line, censored GI50 values
[18] = LY2 cell line, censored GI50 values
[19] = MCF7, MCF7 cell line, censored GI50 values
[20] = MDA-MB-134-VI, MDAMB134VI cell line, censored GI50 values
[21] = MDA-MB-157, MDAMB157 cell line, censored GI50 values
[22] = MDA-MB-175-VII, MDAMB175VII cell line, censored GI50 values
[23] = MDA-MB-231, MDAMB231 cell line, censored GI50 values
[24] = MDA-MB-361, MDAMB361 cell line, censored GI50 values
[25] = MDA-MB-415, MDAMB415 cell line, censored GI50 values
[26] = MDA-MB-436, MDAMB436 cell line, censored GI50 values
[27] = MDA-MB-453, MDAMB453 cell line, censored GI50 values
[28] = MDA-MB-468, MDAMB468 cell line, censored GI50 values
[29] = SUM52PE, SUM52PE cell line, censored GI50 values
[30] = SUM185PE, SUM185PE cell line, censored GI50 values
[31] = SUM1315MO2, SUM1315MO2 cell line, censored GI50 values
[32] = SUM-159-PT, SUM159PT cell line, censored GI50 values
[33] = UACC-812, UACC812 cell line, censored GI50 values
[34] = UACC-893, UACC893 cell line, censored GI50 values
[35] = ZR-75-1, ZR751 cell line, censored GI50 values
[36] = ZR-75B, ZR75B cell line, censored GI50 values

Structure (SMILES): COc1cccc2c1C(=O)c1c(O)c3c(c(O)c1C2=O)C[C@@](O)(C(=O)CO)C[C@@H]3O[C@H]1C[C@H](N)[C@H](O)[C@H](C)O1 [Doxorubicin]
- GI50 [1]: 269 nM
- GI50 [2]: 93.3 nM
- GI50 (AU565, cell line AU565): 93.3 nM
- GI50 [3]: 309 nM
- GI50 (BT-474, cell line BT474): 309 nM
- GI50 [4]: 151 nM
- GI50 (BT-483, cell line BT483): 151 nM
- GI50 (CAMA-1, CAMA1 cell line, censored GI50 values): 263 nM
- GI50 (CAMA-1, cell line CAMA1): 263 nM
- GI50 [5]: 72.4 nM
- GI50 (HCC38, cell line HCC38): 72.4 nM
- GI50 [6]: 2290 nM
- GI50 (HCC70, cell line HCC70): 2290 nM
- GI50 [7]: 525 nM
- GI50 (HCC202, cell line HCC202): 525 nM
- GI50 [8]: 525 nM
- GI50 (HCC1143, cell line HCC1143): 525 nM
- GI50 [9]: 132 nM
- GI50 (HCC1187, cell line HCC1187): 132 nM
- GI50 [10]: 251 nM
- GI50 (HCC1395, cell line HCC1395): 251 nM
- GI50 [11]: 513 nM
- GI50 (HCC1419, cell line HCC1419): 513 nM
- GI50 [12]: 1200 nM
- GI50 (HCC1428, cell line HCC1428): 1200 nM
- GI50 [13]: 200 nM
- GI50 (HCC1500, cell line HCC1500): 200 nM
- GI50 [14]: 162 nM
- GI50 (HCC1806, cell line HCC1806): 162 nM
- GI50 [15]: 186 nM
- GI50 (HCC1954, cell line HCC1954): 186 nM
- GI50 [16]: 69.2 nM
- GI50 [17]: 355 nM
- GI50 [18]: 195 nM
- GI50 [19]: 501 nM
- GI50 (MCF7, cell line MCF7): 501 nM
- GI50 [20]: 1200 nM
- GI50 [21]: 398 nM
- GI50 (MDA-MB-157, cell line MDAMB157): 398 nM
- GI50 [22]: 708 nM
- GI50 [23]: 214 nM
- GI50 (MDA-MB-231, cell line MDAMB231): 214 nM
- GI50 [24]: 234 nM
- GI50 (MDA-MB-361, cell line MDAMB361): 234 nM
- GI50 [25]: 372 nM
- GI50 (MDA-MB-415, cell line MDAMB415): 372 nM
- GI50 [26]: 589 nM
- GI50 (MDA-MB-436, cell line MDAMB436): 589 nM
- GI50 [27]: 214 nM
- GI50 (MDA-MB-453, cell line MDAMB453): 214 nM
- GI50 [28]: 741 nM
- GI50 (MDA-MB-468, cell line MDAMB468): 741 nM
- GI50 (SK-BR-3, SKBR3 cell line, censored GI50 values): 126 nM
- GI50 (SK-BR-3, cell line SKBR3): 126 nM
- GI50 [29]: 97.7 nM
- GI50 (SUM52PE, cell line SUM52PE): 97.7 nM
- GI50 [30]: 309 nM
- GI50 (SUM185PE, cell line SUM185PE): 309 nM
- GI50 [31]: 214 nM
- GI50 [32]: 347 nM
- GI50 (SUM-159-PT, cell line SUM159PT): 347 nM
- GI50 [33]: 74.1 nM
- GI50 (UACC-812, cell line UACC812): 74.1 nM
- GI50 [34]: 832 nM
- GI50 (UACC-893, cell line UACC893): 832 nM
- GI50 [35]: 138 nM
- GI50 (ZR-75-1, cell line ZR751): 138 nM
- GI50 (ZR-75-30, ZR7530 cell line, censored GI50 values): 110 nM
- GI50 (ZR-75-30, cell line ZR7530): 110 nM
- GI50 [36]: 251 nM
- GI50 (ZR-75B, cell line ZR75B): 251 nM
- GI50 (cell line 600MPE): 269 nM
- GI50 (cell line HCC2185): 69.2 nM
- GI50 (cell line HCC3153): 355 nM
- GI50 (cell line LY2): 195 nM
- GI50 (cell line MDAMB134V): 1200 nM
- GI50 (cell line MDAMB175V): 708 nM
- GI50 (cell line SUM1315MO): 214 nM

Structure (SMILES): COc1cccc2c1C(=O)c1c(O)c3c(c(O)c1C2=O)C[C@@](O)(C(=O)CO)C[C@@H]3O[C@H]1C[C@H](N)[C@@H](O)[C@H](C)O1 [Epirubicin]
- GI50 [1]: 347 nM
- GI50 [2]: 145 nM
- GI50 (AU565, cell line AU565): 145 nM
- GI50 [3]: 6760 nM
- GI50 (BT-474, cell line BT474): 6760 nM
- GI50 [4]: 166 nM
- GI50 (BT-483, cell line BT483): 166 nM
- GI50 (BT-549, BT549 cell line, censored GI50 values): 204 nM
- GI50 (BT-549, cell line BT549): 204 nM
- GI50 [5]: 93.3 nM
- GI50 (HCC38, cell line HCC38): 93.3 nM
- GI50 [6]: 417 nM
- GI50 (HCC70, cell line HCC70): 417 nM
- GI50 [7]: 603 nM
- GI50 (HCC202, cell line HCC202): 603 nM
- GI50 [8]: 288 nM
- GI50 (HCC1143, cell line HCC1143): 288 nM
- GI50 [9]: 1000 nM
- GI50 (HCC1187, cell line HCC1187): 1000 nM
- GI50 [10]: 447 nM
- GI50 (HCC1395, cell line HCC1395): 447 nM
- GI50 [11]: 708 nM
- GI50 (HCC1419, cell line HCC1419): 708 nM
- GI50 [12]: 1350 nM
- GI50 (HCC1428, cell line HCC1428): 1350 nM
- GI50 [13]: 245 nM
- GI50 (HCC1500, cell line HCC1500): 245 nM
- GI50 [14]: 166 nM
- GI50 (HCC1806, cell line HCC1806): 166 nM
- GI50 (HCC1937, HCC1937 cell line, censored GI50 values): 204 nM
- GI50 (HCC1937, cell line HCC1937): 204 nM
- GI50 [15]: 200 nM
- GI50 (HCC1954, cell line HCC1954): 200 nM
- GI50 [16]: 126 nM
- GI50 [17]: 646 nM
- GI50 [18]: 214 nM
- GI50 [19]: 355 nM
- GI50 (MCF7, cell line MCF7): 355 nM
- GI50 [20]: 1050 nM
- GI50 [21]: 550 nM
- GI50 (MDA-MB-157, cell line MDAMB157): 550 nM
- GI50 [22]: 100 nM
- GI50 [23]: 269 nM
- GI50 (MDA-MB-231, cell line MDAMB231): 269 nM
- GI50 [24]: 224 nM
- GI50 (MDA-MB-361, cell line MDAMB361): 224 nM
- GI50 [25]: 263 nM
- GI50 (MDA-MB-415, cell line MDAMB415): 263 nM
- GI50 [26]: 708 nM
- GI50 (MDA-MB-436, cell line MDAMB436): 708 nM
- GI50 [27]: 224 nM
- GI50 (MDA-MB-453, cell line MDAMB453): 224 nM
- GI50 [28]: 692 nM
- GI50 (MDA-MB-468, cell line MDAMB468): 692 nM
- GI50 [29]: 295 nM
- GI50 (SUM52PE, cell line SUM52PE): 295 nM
- GI50 (SUM149PT, SUM149PT cell line, censored GI50 values): 219 nM
- GI50 (SUM149PT, cell line SUM149PT): 219 nM
- GI50 [30]: 407 nM
- GI50 (SUM185PE, cell line SUM185PE): 407 nM
- GI50 [31]: 36.3 nM
- GI50 [32]: 141 nM
- GI50 (SUM-159-PT, cell line SUM159PT): 141 nM
- GI50 [33]: 251 nM
- GI50 (UACC-812, cell line UACC812): 251 nM
- GI50 [34]: 776 nM
- GI50 (UACC-893, cell line UACC893): 776 nM
- GI50 [35]: 251 nM
- GI50 (ZR-75-1, cell line ZR751): 251 nM
- GI50 [36]: 115 nM
- GI50 (ZR-75B, cell line ZR75B): 115 nM
- GI50 (cell line 600MPE): 347 nM
- GI50 (cell line HCC2185): 126 nM
- GI50 (cell line HCC3153): 646 nM
- GI50 (cell line LY2): 214 nM
- GI50 (cell line MDAMB134V): 1050 nM
- GI50 (cell line MDAMB175V): 100 nM
- GI50 (cell line SUM1315MO): 36.3 nM
